By IC50 is commonly meant the concentration that inhibits the measured activity by half.

Sequence of Kallikrein (P03952 whole entry): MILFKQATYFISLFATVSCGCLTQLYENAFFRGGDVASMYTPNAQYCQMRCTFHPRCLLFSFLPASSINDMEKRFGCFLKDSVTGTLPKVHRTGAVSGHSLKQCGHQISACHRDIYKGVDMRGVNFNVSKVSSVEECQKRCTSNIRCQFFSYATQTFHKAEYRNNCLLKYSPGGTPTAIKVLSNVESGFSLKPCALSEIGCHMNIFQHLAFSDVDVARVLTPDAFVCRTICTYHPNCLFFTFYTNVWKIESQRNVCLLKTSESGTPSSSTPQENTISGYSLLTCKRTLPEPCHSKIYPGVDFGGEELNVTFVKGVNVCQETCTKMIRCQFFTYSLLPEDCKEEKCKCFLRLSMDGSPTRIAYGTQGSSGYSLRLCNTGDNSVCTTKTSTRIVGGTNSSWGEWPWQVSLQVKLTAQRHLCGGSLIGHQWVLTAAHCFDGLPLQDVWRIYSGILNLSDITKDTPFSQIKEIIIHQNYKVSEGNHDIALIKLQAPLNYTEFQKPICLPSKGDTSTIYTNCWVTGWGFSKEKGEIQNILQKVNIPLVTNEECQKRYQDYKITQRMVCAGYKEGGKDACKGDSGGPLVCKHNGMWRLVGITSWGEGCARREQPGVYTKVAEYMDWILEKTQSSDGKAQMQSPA

One assay deals with Kallikrein (Homo sapiens, UniProt P03952). The assay can be described thus: Kallikrein inhibition assay (fluorometric, H-Pro-Phe-Arg-AMC substrate). It is filed as biochemical. As to conditions: 24° C, HEPES pH 7.5, 5% DMSO, fluorescence after ten minutes. As for the experimental part:
Kallikrein activity was assayed fluorometrically with an aminomethyl coumarin-containing (AMC-containing) substrate according to procedures described in Zimmerman et al., Proc. Natl. Acad. Sci. USA 75:750 (1978), the entire teachings of which are incorporated herein by reference. Specifically, enzyme assays with varying concentrations of the fluorogenic substrate H-Pro-Phe-Arg-AMC were conducted at 24° C in 0.05 M 4-(2-hydroxyethyl)-piperazineethanesulfonic acid (HEPES) buffer, pH 7.5/5% (vol/vol) dimethyl sulfoxide. The final volume was 0.1 ml in each assay. Fluorescence was read after ten minutes at 360 nm (activation wavelength) and 460 nm (emission wavelength).
Turning to `COc1ccc(OC)c(C(=O)CCC(=O)OC(C(=O)NC2CC2)c2ccc(Br)cc2)c1` (stereo not shown) [Compound (1)], the IC50 was found to be 0.174 µM.

Molecule `N#Cc1ccc(C(OC(=O)Cc2c[nH]c3ccc(Br)cc23)C(=O)NC2CC2)cc1` (stereo not shown) [Compound (2)] had an IC50 of 0.167 µM.

`N#Cc1ccc(C(OC(=O)CCC2CCCCC2)C(=O)NC2CC2)cc1` (stereo not shown) [Compound (3)]: 1.06 µM corresponded to half-maximal inhibition (IC50).

With `COC(=O)c1ccc(C(OC(=O)CCC(=O)c2ccccc2)C(=O)NCc2cc(OC)c(OC)c(OC)c2)cc1` (stereo not shown) [Compound (11)], the half-inhibitory concentration (IC50) came out at 0.442 µM.

As for `COc1cc(CNC(=O)C(OC(=O)CCC(=O)c2ccccc2)c2ccccc2)cc(OC)c1OC` (stereo not shown) [Compound (12)], the IC50 came out at 0.737 µM.

Molecule `COc1cc(CNC(=O)C(OC(=O)CCC(=O)c2ccccc2)c2ccc(SC)cc2)cc(OC)c1OC` (stereo not shown) [Compound (13)] showed a 50% inhibitory concentration (IC50) of 0.874 µM.

As to `COc1cc(CNC(=O)C(OC(=O)CCC(=O)c2ccccc2)c2ccc(S(C)(=O)=O)cc2)cc(OC)c1OC` (stereo not shown) [Compound (14)], half-maximal inhibition (IC50) required 1.18 µM.

Take `COc1cc(CNC(=O)C(OC(=O)CCOc2ccccc2)c2cccc(C#N)c2)cc(OC)c1OC` (stereo not shown) [Compound (15)]: the IC50 came to 0.577 µM.

In turn, `COc1ccc(OC)c(C(=O)CCC(=O)OC(C(=O)Nc2ccc(OC)c(OC)c2)c2cccc(C#N)c2)c1` (stereo not shown) [Compound (16)] displayed a half-maximal inhibitory concentration (IC50) of 0.253 µM.

`COc1cc(CNC(=O)C(OC(=O)CSc2nccc(C)n2)c2cccc(C#N)c2)cc(OC)c1OC` (stereo not shown) [Compound (17)] gave a half-maximal inhibitory concentration (IC50) of 0.384 µM.

`COc1cc(CNC(=O)C(OC(=O)CSc2nc(C)cc(C)n2)c2cccc(C#N)c2)cc(OC)c1OC` (stereo not shown) [Compound (18)] had an IC50 of 6.47 µM.

On to `COc1cccc(OCCC(=O)OC(C(=O)NCc2cc(OC)c(OC)c(OC)c2)c2cccc(C#N)c2)c1` (stereo not shown) [Compound (19)], for which half-maximal inhibition (IC50) was put at 1.69 µM.

As to `COc1cc(CNC(=O)C(OC(=O)CSc2ncccn2)c2cccc(C#N)c2)cc(OC)c1OC` (stereo not shown) [Compound (20)], the concentration for half-maximal inhibition (IC50) amounted to 1.48 µM.

In the case of `COc1cc(CNC(=O)C(OC(=O)CCCc2ccccc2)c2cccc(C#N)c2)cc(OC)c1OC` (stereo not shown) [Compound (21)], the 50% inhibitory concentration (IC50) turned out to be 1.18 µM.

Molecule `COc1ccc(CC(=O)OC(C(=O)Nc2ccc(OC)c(OC)c2)c2ccc(C#N)cc2)cc1` (stereo not shown) [Compound (22)] showed an IC50 of 0.428 µM.

As to `COc1ccc(CC(=O)OC(C(=O)NCc2cc(OC)c(OC)c(OC)c2)c2ccc(C#N)cc2)cc1` (stereo not shown) [Compound (23)], it took 0.576 µM to reach half-maximal inhibition (IC50).

Turning to `COc1ccc(OC)c(C(=O)CCC(=O)OC(C(=O)Nc2ccc(OC)c(OC)c2)c2ccc(Br)cc2)c1` (stereo not shown) [Compound (25)], the 50% inhibitory concentration (IC50) was found to be 0.275 µM.

In turn, `COc1ccc(CC(=O)OC(C(=O)Nc2ccc(OC)c(OC)c2)c2ccc(Br)cc2)cc1` (stereo not shown) [Compound (28)] gave an IC50 of 0.68 µM.

`COc1ccc(NC(=O)C(OC(=O)CCOc2ccccc2)c2ccc(Br)cc2)cc1` (stereo not shown) [Compound (30)] returned an IC50 of 0.714 µM.

In turn, `COc1ccc(CCNC(=O)C(OC(=O)CSc2ncccn2)c2ccc(C#N)cc2)cc1` (stereo not shown) [Compound (31)] gave an IC50 of 0.543 µM.

Regarding `O=C(CCOc1ccccc1)OC(C(=O)Nc1ccc2ncccc2c1)c1ccc(Br)cc1` (stereo not shown) [Compound (32)], the midpoint of inhibition, the IC50, lay at 1.34 µM.

As for `NC(=O)c1ccc(NC(=O)C(OC(=O)CCOc2ccccc2)c2ccc(Br)cc2)cc1` (stereo not shown) [Compound (33)], the 50% inhibitory concentration (IC50) came out at 0.459 µM.

`COc1ccc(OC)c(C(=O)CCC(=O)OC(C(=O)NCc2cc(OC)c(OC)c(OC)c2)c2ccc(C(F)(F)F)cc2)c1` (stereo not shown) [Compound (34)] registered a half-inhibitory concentration (IC50) of 0.731 µM.

In turn, `COc1ccc(CC(=O)OC(C(=O)NC2CC2)c2ccc(C#N)cc2)cc1` (stereo not shown) [Compound (35)] came in with an IC50 of 0.391 µM.

`COc1cc(CNC(=O)C(OC(=O)c2csc3cc4c(cc23)OC(C)(C)O4)c2ccc(Br)cc2)cc(OC)c1OC` (stereo not shown) [Compound (36)]: the concentration for half-maximal inhibition (IC50) is 3.67 µM.

The molecule `COc1ccc(OC)c(C(=O)CCC(=O)OC(C(=O)NCc2cc(OC)c(OC)c(OC)c2)c2ccccc2)c1` (stereo not shown) [Compound (37)] gave a half-maximal inhibitory concentration (IC50) of 1.67 µM.

`N#Cc1ccc(C(OC(=O)Cc2c[nH]c3ccccc23)C(=O)NC2CC2)cc1` (stereo not shown) [Compound (38)] registered a concentration for half-maximal inhibition (IC50) of 3.77 µM.

As to `COc1cc(CNC(=O)C(OC(=O)Cc2c[nH]c3ccc(Br)cc23)c2ccc(Br)cc2)cc(OC)c1OC` (stereo not shown) [Compound (39)], the concentration for half-maximal inhibition (IC50) worked out at 2.68 µM.

The subject of the next assay is male rats. The assay can be described thus: Rat model of inflammatory bowel disease (DNBS-induced distal colitis). It is filed as in vivo. As to conditions: 500 mg/kg PO × 7, with DNBS; rats. As for the experimental part:
Compounds were tested according to procedures described in C M Hogaboam et al., Eur. J. Pharmacol. 309:261 (1996), the entire teachings of which are incorporated herein by reference. Groups of 3 overnight fasted male rats weighing 150±10 grams were used. Distal colitis was induced by intra-colonic instillation of 0.5 ml/rat of DNBS (2,4-dinitrobenzene sulfonic acid, 60 mg/ml in ethanol 30%) after which air (2 ml) was gently injected through the cannula to ensure that the solution remained in the colon. Test compound was administered orally 24 and 2 hours before DNBS instillation and then daily for 5 days in total of 7 doses. The animals were sacrificed 24 hours after the final dose of test compound administration and each colon was removed and weighed. A 30 percent or more (≧30%) inhibition in net increase of colon to 100 grams body weight ratio, relative to vehicle-control-2 group is considered significant.
Consider `O=C(O)c1cc(/N=N/c2ccc(S(=O)(=O)Nc3ccccn3)cc2)ccc1O` [Sulfasalazine, reference compound], for which the “Ave. (average final weight of the colon in grams)” value is given as 0.865 grams, the “Inhibition (percent inhibition in net increase of colon weight relative to control Group 2)” value is reported as 32% and the “Net Inc. (net increase in weight of the colon relative to control Group 1)” value is reported as 0.378 grams.

In another assay the target is Urokinase (Homo sapiens, UniProt P00749). The assay can be described thus: Urokinase assay (fluorometric, Cbz-Gly-Gly-Arg-AMC substrate). The class given is biochemical. The following applies: 24° C, HEPES pH 7.5, 5% DMSO, fluorescence after ten minutes; read-out: IC50 (μM), urokinase inhibition. As for the experimental part: Urokinase activity was assayed fluorometrically with an aminomethyl coumarin-containing (AMC-containing) substrate according to procedures described in Zimmerman et al, Proc. Natl. Acad. Sci. USA 75:750 (1978), the entire teachings of which are incorporated herein by reference. Specifically, enzyme assays with varying concentrations of the fluorogenic substrate Cbz-Gly-Gly-Arg-AMC were conducted at 24° C. in 0.05 M 4-(2-hydroxyethyl)-piperazineethanesulfonic acid (HEPES) buffer, pH 7.5/5% (vol/vol) dimethyl sulfoxide; the final volume was 0.1 ml in each assay.
Fluorescence was read after ten minutes at 360 nm (activation wavelength) and 460 nm (emission wavelength).
With `N#Cc1ccc(C(OC(=O)Cc2c[nH]c3ccccc23)C(=O)NC2CC2)cc1` (stereo not shown) [Compound (4)], the IC50 was 0.086 µM.

Turning to `N#Cc1ccc(C(OC(=O)Cc2c[nH]c3ccc(Br)cc23)C(=O)NC2CC2)cc1` (stereo not shown) [Compound (5)], the half-maximal inhibitory concentration (IC50) came to 0.029 µM.

`N#Cc1ccc(C(OC(=O)CSc2ncccn2)C(=O)NC2CC2)cc1` (stereo not shown) [Compound (6)]: the half-maximal inhibitory concentration (IC50) was 0.032 µM.

As for `COc1ccc(CC(=O)OC(C(=O)NC2CC2)c2ccc(C#N)cc2)cc1` (stereo not shown) [Compound (7)], the 50% inhibitory concentration (IC50) came to 0.11 µM.

As for `COc1ccc(CCNC(=O)C(OC(=O)CSc2ncccn2)c2ccc(C#N)cc2)cc1` (stereo not shown) [Compound (8)], the IC50 is 0.112 µM.

As for `COc1cc(CNC(=O)C(OC(=O)CSc2ncccn2)c2cccc(C#N)c2)cc(OC)c1OC` (stereo not shown) [Compound (9)], the half-inhibitory concentration (IC50) was 0.923 µM.

For the molecule `COc1ccc(CC(=O)OC(C(=O)NCc2ccc3c(c2)OCO3)c2ccc(C#N)cc2)cc1` (stereo not shown) [Compound (10)], the half-maximal inhibitory concentration (IC50) turned out to be 0.783 µM.

For the molecule `COc1cc(CNC(=O)C(OC(=O)CCOc2ccccc2)c2cccc(C#N)c2)cc(OC)c1OC` (stereo not shown) [Compound (40)], the half-maximal inhibitory concentration (IC50) came out at 6.09 µM.

As for `COc1ccc(CC(=O)OC(C(=O)Nc2ccc(OC)c(OC)c2)c2ccc(C#N)cc2)cc1` (stereo not shown) [Compound (41)], the 50% inhibitory concentration (IC50) is 2.32 µM.

As for `COc1ccc(CC(=O)OC(C(=O)NCc2cc(OC)c(OC)c(OC)c2)c2ccc(C#N)cc2)cc1` (stereo not shown) [Compound (42)], the IC50 came to 1.97 µM.

As for `COc1ccc(NC(=O)C(OC(=O)CSc2ncccn2)c2ccc(Br)cc2)cc1OC` (stereo not shown) [Compound (43)], the IC50 worked out at 3.39 µM.

Regarding `COc1cc(CNC(=O)C(OC(=O)CCC2CCCCC2)c2cccc(C#N)c2)cc(OC)c1OC` (stereo not shown) [Compound (44)], the half-maximal inhibitory concentration (IC50) was found to be 1.78 µM.

Turning to `COc1ccc(CCNC(=O)C(OC(=O)CSc2ncccn2)c2ccc(Br)cc2)cc1` (stereo not shown) [Compound (45)], the concentration for half-maximal inhibition (IC50) was 1.41 µM.

`COc1ccc(CCNC(=O)C(OC(=O)CSc2ncccn2)c2ccc3ccccc3c2)cc1` (stereo not shown) [Compound (46)]: the IC50 came to 2.93 µM.

In the case of `COc1ccc(CCNC(=O)C(OC(=O)CSc2ncccn2)c2ccc(OC)cc2)cc1` (stereo not shown) [Compound (47)], the IC50 came out at 2.38 µM.

`COc1ccc(CCNC(=O)C(OC(=O)CSc2ncccn2)c2ccc(C(F)(F)F)cc2)cc1` (stereo not shown) [Compound (48)]: the half-maximal inhibitory concentration (IC50) came to 5.38 µM.

Take `COc1ccc(C(OC(=O)CSc2ncccn2)C(=O)NCc2ccc3c(c2)OCO3)cc1` (stereo not shown) [Compound (49)]: the IC50 worked out at 1.37 µM.

Consider `O=C(CSc1ncccn1)OC(C(=O)NCc1ccc2c(c1)OCO2)c1ccc(C(F)(F)F)cc1` (stereo not shown) [Compound (50)], for which the IC50 amounted to 3.1 µM.

Turning to `COc1ccc(CCNC(=O)C(OC(=O)Cc2ccc(OC)cc2)c2ccc(C#N)cc2)cc1` (stereo not shown) [Compound (51)], the concentration for half-maximal inhibition (IC50) was found to be 1.22 µM.

Consider `CCSCCNC(=O)C(OC(=O)Cc1ccc(OC)cc1)c1ccc(C#N)cc1` (stereo not shown) [Compound (52)], for which the IC50 came to 0.628 µM.

In the case of `CCOC(=O)CCNC(=O)C(OC(=O)Cc1ccc(OC)cc1)c1ccc(C#N)cc1` (stereo not shown) [Compound (53)], the IC50 came out at 1.06 µM.

In the case of `COc1ccc(CC(=O)OC(C(=O)NC2CC2)c2ccccc2)cc1` (stereo not shown) [Compound (54)], the 50% inhibitory concentration (IC50) worked out at 0.814 µM.

`N#Cc1ccc(C(OC(=O)CCC2CCCC2)C(=O)NC2CC2)cc1` (stereo not shown) [Compound (55)]: the half-maximal inhibitory concentration (IC50) amounted to 0.151 µM.

`N#Cc1ccc(C(OC(=O)CCC2CCCCC2)C(=O)NC2CC2)cc1` (stereo not shown) [Compound (56)]: the IC50 was determined as 0.055 µM.

For the origin of these results see US20040044075A1, “Alpha acyloxyacetamides for kallikrein and urokinase inhibition” (Genzyme Corporation, priority 2002, published 2004).
